US20060147923A1, “Nucleic acid sequences encoding novel point mutations on mglur2 and mglur3” (priority 2002, published 2006)

Target: T1, wild type mGluR2 (Homo sapiens, UniProt Q14416)
T1 construct: expressed in transfected cells; host or cells: HEK293 cells, transient lipid transfection (Effectene, MAGEC plate protocol)
Assay: Phosphoinositide hydrolysis, wild-type mGluR2 (FIG. 1)
Format: cell-based
Conditions: HEK-293 cells transfected with wild-type mGluR2; 5 uM glutamate; normalized to 1 mM glutamate control
Source text: For mGluR2 and mGluR3 mutants, the mGluR2/Gα16 nucleic acids are mixed with a lipid-based transfection reagent and are deposited into a well of a multi-well plate coated with fibronectin. The resulting DNA/lipid complexes are subsequently dried in vacuo then seeded with HEK293 cells. This is based on a method designated as MAGECTM, and disclosed in U.S. Provisional Application No. 60/372,476, filed Apr. 15, 2002, and titled, “Matrix Analyses of Gene Expression in Cells.”
11. Approximately forty hours after plating, the cells are analyzed in the phosphoinositide hydrolysis assay.
Phosphoinositide hydrolysis was determined by measuring the accumulation of tritiated inositol monophosphate ([^3H]-IP1) in the presence of LiCl. The method is taken from Berridge: Biochem J (1983) 212: 849-58. This determination provides for comparative data on the level of potentiation and loss of potentiation when testing a purported or known allosteric modulator in the presence of glutamate and either a wild-type mGluR2 or mGluR3 and at least one mutant of the respective mGluR2 or mGluR3.
1. HEK293 cells that were previously transiently transfected with hmGluR2 and Gα16 were labeled overnight with 1 μCi/well myo-[2-^3H]-inositol in a […] DMEM medium.
2. […]
12. The sample was quantified in a scintillation counter after a two-hour waiting period. […]

T1 sequence (Q14416 19-872): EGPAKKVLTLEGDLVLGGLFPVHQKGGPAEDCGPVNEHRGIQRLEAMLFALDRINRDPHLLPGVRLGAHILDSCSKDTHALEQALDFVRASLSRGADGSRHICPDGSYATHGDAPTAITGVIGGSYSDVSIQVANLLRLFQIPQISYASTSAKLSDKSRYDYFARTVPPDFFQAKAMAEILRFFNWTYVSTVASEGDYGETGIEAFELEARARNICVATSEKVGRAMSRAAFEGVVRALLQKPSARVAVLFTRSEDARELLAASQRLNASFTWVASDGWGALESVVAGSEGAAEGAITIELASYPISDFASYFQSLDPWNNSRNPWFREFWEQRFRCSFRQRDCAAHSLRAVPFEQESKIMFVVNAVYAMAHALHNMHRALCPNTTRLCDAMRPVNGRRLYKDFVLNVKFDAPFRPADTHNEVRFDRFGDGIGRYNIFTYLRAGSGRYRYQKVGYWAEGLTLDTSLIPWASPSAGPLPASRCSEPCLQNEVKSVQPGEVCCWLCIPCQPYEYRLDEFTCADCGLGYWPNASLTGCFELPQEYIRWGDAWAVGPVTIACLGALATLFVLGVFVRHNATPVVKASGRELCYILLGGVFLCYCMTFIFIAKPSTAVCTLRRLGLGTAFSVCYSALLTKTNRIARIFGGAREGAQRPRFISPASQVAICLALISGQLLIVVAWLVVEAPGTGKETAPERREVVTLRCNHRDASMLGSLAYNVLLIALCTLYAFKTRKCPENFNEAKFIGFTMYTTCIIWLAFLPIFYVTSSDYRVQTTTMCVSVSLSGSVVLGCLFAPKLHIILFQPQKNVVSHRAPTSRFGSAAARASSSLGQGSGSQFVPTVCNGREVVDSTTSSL

effect of modulator on response to glutamate, percent response compared to 1 mM glutamate positive control: up-regulating the response of mGluR2
Structure (SMILES): COc1ccccc1Oc1cccc(N(Cc2cccnc2)S(=O)(=O)CC(F)(F)F)c1 [Compound A]
